Molecular target: T1, EED (1-441)-His protein (Homo sapiens, UniProt O75530)
T1 construct: 20 nM EED (1-441)-His protein
Experiment: EED-H3K27Me3 peptide competition binding assay by AlphaScreen
Conditions: IC50 class, Table 4B, read-out: Alpha screen
Description: EED-H3K27Me3 Peptide Competition Binding Assay by AlphaScreen (α-Screen):
The compounds at each concentration (2.5 μl of each) were transferred into a 384-well Perkin Elmer OptiPlate-384 white plates. 5 μl of solutions containing 20 nM EED (1-441)-His protein in the buffer (25 mM HEPES, pH 8, 0.02% Tween-20, 0.5% BSA) were added to the wells and then incubated with compound for 15 min. 2.5 μl of solutions containing 20 nM biotin-H3K27Me3 (19-33) peptide in the buffer (25 mM HEPES, pH 8, 0.02% Tween-20, 0.5% BSA) were added to the wells and then incubated with compound for 30 min. AlphaScreen detection beads mix was prepared immediately before use by mixing nickel chelate acceptor beads and streptavidin donor beads in a 1:1 ratio (Perkin Elmer, Product No. 6760619C/M/R) into the buffer described above. Then 10 μl of the detection beads mix was added to the plate and incubated in the dark at RT for 1 h. The final concentration of donor and acceptor beads was 10 μg/ml for each. Plates were read on CLARIOStar plate reader (BMG Labtech) using the AlphaScreen setting adapted for optimal signal detection with a 615 nm filter, after sample excitation at 680 nm. The emission signal at 615 nm was used to quantify compound inhibition. AlphaScreen signals were normalized based on the reading coming from the positive (maximum signal control) and negative controls (minimum signal control) to give percentage of activities left. The data were then fit to a dose response equation to get the IC50 values.

T1 sequence (O75530 whole entry): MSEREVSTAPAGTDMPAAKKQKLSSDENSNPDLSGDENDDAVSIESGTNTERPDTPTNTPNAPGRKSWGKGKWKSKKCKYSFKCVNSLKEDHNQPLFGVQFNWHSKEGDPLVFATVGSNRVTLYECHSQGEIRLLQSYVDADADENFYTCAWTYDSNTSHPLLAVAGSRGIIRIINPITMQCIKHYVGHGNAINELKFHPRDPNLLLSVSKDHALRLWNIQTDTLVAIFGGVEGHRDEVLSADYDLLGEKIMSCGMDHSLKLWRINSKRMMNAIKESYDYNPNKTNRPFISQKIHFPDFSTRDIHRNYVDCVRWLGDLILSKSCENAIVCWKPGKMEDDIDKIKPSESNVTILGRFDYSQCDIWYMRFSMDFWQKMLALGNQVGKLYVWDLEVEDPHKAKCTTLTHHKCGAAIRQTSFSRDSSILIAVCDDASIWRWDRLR

| Structure (SMILES) | IC50 [nM] |
| --- | --- |
| CC(C)c1ccc2c(n1)CN(CC(F)(F)F)C(=O)c1ncn3c(NCc4c(F)ccc5c4CCO5)ncc-2c13 [E 15, 12-(((5-fluoro-2,3-dihydrobenzofuran-4-yl)methyl)amino)-7-isopropyl-4-(2,2,2-trifluoroethyl)-4,5-dihydro-3H-2,4,6,11,12a-pentaazabenzo[4,5] cycloocta[1,2,3-cd]inden-3-one] | < 10 |
| O=C1c2ncn3c(NCc4c(F)ccc5c4CCO5)ncc(c23)-c2ccc(C3CC3)nc2CN1CC(F)(F)F [E 14, 7-cyclopropyl-12-(((5-fluoro-2,3-dihydrobenzo-furan-4-yl)methyl)amino)-4-(2,2,2-trifluoroethyl)-4,5-dihydro-3H-2,4,6,11,12a-pentaazabenzo[4,5] cycloocta[1,2,3-cd]inden-3-one] | < 10 |
| O=C1NCCc2ccccc2-c2cnc(NCc3c(F)ccc4c3CCO4)n3cnc1c23 [E 28, 13-(((5-fluoro-2,3-dihydrobenzofuran-4-yl)methyl)amino)-5,6-dihydro-2,4, 12, 13a-tetraazabenzo[4,5] cyclonona[1,2,3-cd]inden-3(4H)-one] | 10 to 100 |
| Cc1ccc2c(n1)Cn1ccnc1-c1ncn3c(NCc4c(F)ccc5c4CCO5)ncc-2c13 [E 34, N-((5-fluoro-2,3-dihydrobenzofuran-4-yl)methyl)-8-methyl-6H-2,3,5a,7,12,13a-hexaazabenzo[4,5] cyclopenta[7,8]cycloocta[1,2,3-cd]inden-13-amine] | 10 to 100 |
| CCc1cnc2n1Cc1nc(C)ccc1-c1cnc(NCc3c(F)ccc4c3CCO4)n3cnc-2c13 [E 38, 5-ethyl-N-((5-fluoro-2,3-dihydrobenzofuran-4-yl)methyl)-8-methyl-6H-2,3,5a,7,12,13a-hexaazabenzo [4,5]cyclopenta[7,8]cycloocta[1,2,3-cd]inden-1 3-amine] | 10 to 100 |
| CC(C)(C)c1ccc2c(n1)CN(CC(F)(F)F)C(=O)c1ncn3c(NCc4c(F)ccc5c4CCO5)ncc-2c13 [E 50, 7-(tert-butyl)-12-(((5-fluoro-2,3-dihydrobenzofuran-4-yl)methyl)amino)-4-(2,2,2-trifluoroethyl)-4,5-dihydro-3H-2,4,6,11,12a-pentaazabenzo[4,5] cycloocta[1,2,3-cd]inden-3-one] | < 10 |
| O=C1c2ncn3c(NCc4c(F)ccc5c4CCO5)ncc(c23)-c2ccc(CC3COCCO3)nc2CN1CC(F)(F)F (stereo not drawn) [E 49, 7-((1,4-dioxan-2-yl)methyl)-12-(((5-fluoro-2,3-dihydrobenzofuran-4-yl)methyl)amino)-4-(2,2,2-trifluoroethyl)-4,5-dihydro-3H-2,4,6,11,12a-pentaazabenzo[4,5]cycloocta[1,2,3-cd] inden-3-one] | < 10 |
| Cc1cc2c(cn1)-c1cnc(NCc3c(F)ccc4c3CCO4)n3cnc(c13)C(=O)N(C(C)C)C2 [E 2, 12-(((5-fluoro-2,3-dihydrobenzofuran-4-yl)methyl)amino)-4-isopropyl-7-methyl-4,5-dihydro-3H-2,4,8,11,12a-pentaazabenzo[4,5]cycloocta[1,2,3-cd] inden-3-one] | < 10 |

Same assay, conditions: Table 4A, read-out: Alpha screen

| Structure (SMILES) | IC50 [nM] |
| --- | --- |
| COCCN1Cc2nc(C(F)(F)F)ccc2-c2cnc(NCc3c(F)ccc4c3CCO4)n3cnc(c23)C1=O [Compound 57, 12-(((5-fluoro-2,3-dihydrobenzofuran-4-yl)methyl)amino)-4-(2-methoxyethyl)-7-(trifluoromethyl)-4,5-dihydro-3H-2,4,6,11,12a-pentaazabenzo[4,5] cycloocta[1,2,3-cd]inden-3-one] | 4.2 |
| O=C1NCc2cc(F)ccc2-c2cnc(NCc3c(F)ccc4c3CCO4)n3cnc1c23 [Compound 17, 7-fluoro-12-(((5-fluoro-2,3-dihydrobenzofuran-4-yl)methyl)amino)-4,5-dihydro-3H-2,4,11,12a-tetra azabenzo[4,5]cycloocta[1,2,3-cd]inden-3-one] | 0.66 |
| O=C1c2ncn3c(NCc4c(F)ccc5c4CCO5)ncc(c23)-c2cnc(C(F)(F)F)cc2CN1CC1COCCO1 (stereo not drawn) [Compound 37, 4-((1,4-dioxan-2-yl)methyl)-12-(((5-fluoro-2,3-dihydrobenzofuran-4-yl)methyl)amino)-7-(trifluoro-methyl)-4,5-dihydro-3H-2,4,8,11,12a-pentaazabenzo [4,5]cycloocta[1,2,3-cd]inden-3-one] | 0.94 |
| CN1Cc2cc(C(F)(F)F)ncc2-c2cnc(NCc3c(F)ccc4c3CCO4)n3cnc(c23)C1=O [Compound 34, 12-(((5-fluoro-2,3-dihydrobenzofuran-4-yl)methyl)amino)-4-methyl-7-(trifluoromethyl)-4,5-dihydro-3H-2,4,8,11,12a-pentaazabenzo[4,5]cycloocta [1,2,3-cd]inden-3-one] | 0.67 |
| Cc1ccc2c(n1)CNC(=O)c1ncn3c(NCc4c(F)ccc5c4CCO5)ncc-2c13 [Compound 21, 12-(((5-fluoro-2,3-dihydrobenzofuran-4-yl)methyl)amino)-7-methyl-4,5-dihydro-3H-2,4,6,11,12a-pentaazabenzo[4,5]cycloocta[1,2,3-cd]inden-3-one] | 0.55 |
| O=C1OCc2ncc(C(F)(F)F)cc2-c2cnc(NCc3c(F)ccc4c3CCO4)n3cnc1c23 [Compound 30, 12-(((5-fluoro-2,3-dihydrobenzofuran-4-yl)methyl)amino)-8-(trifluoromethyl)-3H,5H-4-oxa-2,6,11, 12a-tetraazabenzo[4,5]cycloocta[1,2,3-cd]inden-3-one] | 2.03 |
| O=C1c2ncn3c(NCc4c(F)ccc5c4CCO5)ncc(c23)-c2ccc(C(F)(F)F)cc2CN1CC(F)(F)F [Compound 83, 12-(((5-fluoro-2,3-dihydrobenzofuran-4-yl)methyl)amino)-4-(2,2,2-trifluoroethyl)-7-(trifluoromethyl)-4,5-dihydro-3H-2,4,11,12a-tetraazabenzo[4,5] cycloocta[1,2,3-cd]inden-3-one] | 9.95 |
| COc1cccc(F)c1CNc1ncc2c3c(ncn13)C(=O)N(C1CC1)Cc1nc(C(F)(F)F)ccc1-2 [Compound 69, 4-cyclopropyl-12-((2-fluoro-6-methoxybenzyl)amino)-7-(trifluoromethyl)-4,5-dihydro-3H-2,4,6, 11,12a-pentaazabenzo[4,5]cycloocta[1,2,3-cd] inden-3-one] | 19.8 |
| O=C1c2ncn3c(NCc4c(F)ccc5c4CCO5)ncc(c23)-c2ccc(C(F)(F)F)nc2CN1CC1CC1 [Compound 55, 4-(cyclopropylmethyl)-12-(((5-fluoro-2,3-dihydrobenzofuran-4-yl)methyl)amino)-7-(trifluoromethyl)-4,5-dihydro-3H-2,4,6,11,12a-pentaazabenzo[4,5] cycloocta[1,2,3-cd]inden-3-one] | 2.14 |
| O=C1c2ncn3c(NCc4c(F)ccc5c4CCO5)ncc(c23)-c2cnc(C(F)(F)F)cc2CN1CC(F)(F)F [Compound 84, 12-(((5-fluoro-2,3-dihydrobenzofuran-4-yl)methyl)amino)-4-(2,2,2-trifluoroethyl)-7-(trifluoromethyl)-4,5-dihydro-3H-2,4,8,11,12a-pentaazabenzo[4,5] cycloocta[1,2,3-cd]inden-3-one] | 3.07 |
| CS(=O)(=O)c1ccc2c(c1)NC(=O)c1ncn3c(NCc4c(F)ccc5c4CCO5)ncc-2c13 [Compound 5, 11-(((5-fluoro-2,3-dihydrobenzofuran-4-yl)methyl)amino)-6-(methylsulfonyl)-2,4,10,11a-tetraazadibenzo[cd,f]azulen-3(4H)-one] | 0.26 |
| O=C1OCc2ncccc2-c2cnc(NCc3c(F)ccc4occc34)n3cnc1c23 [Compound 10, 12-(((5-fluorobenzofuran-4-yl)methyl)amino)-3H, 5H-4-oxa-2,6,11,12a-tetraazabenzo[4,5]cycloocta [1,2,3-cd]inden-3-one] | 1.11 |
| O=C1c2ncn3c(NCc4c(F)ccc5c4CCO5)ncc(c23)-c2ccc(C(F)(F)F)nc2CN1CC1CCOCC1 [Compound 46, 12-(((5-fluoro-2,3-dihydrobenzofuran-4-yl)methyl)amino)-4-((tetrahydro-2H-pyran-4-yl)methyl)-7-(trifluoromethyl)-4,5-dihydro-3H-2,4,6,11, 12a-pentaazabenzo[4,5]cycloocta[1,2,3-cd]inden-3-one] | 1.07 |
| CC(F)(F)CN1Cc2cc(C(F)(F)F)ccc2-c2cnc(NCc3c(F)ccc4c3CCO4)n3cnc(c23)C1=O [Compound 63, 4-(2,2-difluoropropyl)-12-(((5-fluoro-2,3-dihydrobenzofuran-4-yl)methyl)amino)-7-(trifluoromethyl)-4,5-dihydro-3H-2,4,11,12a-tetraazabenzo[4,5] cycloocta[1,2,3-cd]inden-3-one] | 1.89 |
| COc1cccc(F)c1CNc1ncc2c3c(ncn13)C(=O)OCc1cc(C(F)(F)F)ccc1-2 [Compound 28, 12-((2-fluoro-6-methoxybenzyl)amino)-7-(trifluoro-methyl)-3H,5H-4-oxa-2,11,12a-triazabenzo[4,5] cycloocta[1,2,3-cd]inden-3-one] | 2.58 |
| CN1CCC(CN2Cc3cc(C(F)(F)F)ncc3-c3cnc(NCc4c(F)ccc5c4CCO5)n4cnc(c34)C2=O)CC1 [Compound 38, 12-(((5-fluoro-2,3-dihydrobenzofuran-4-yl)methyl)amino)-4-((1-methylpiperidin-4-yl)methyl)-7-(trifluoromethyl)-4,5-dihydro-3H-2,4,8,11,12a-pentaazabenzo[4,5]cycloocta[1,2,3-cd]inden-3-one] | 1.25 |
